{"source": "patent US7314953B2", "about": "“Treatment of lung cells with histone deacetylase inhibitors” (Errant Gene Therapeutics, LLC, priority 2001, dated 2008)", "key": {"histone deacetylase": {"molecular_target": "histone deacetylase", "details": "histone deacetylase inhibitor; cited from earlier work"}, "non-CF HBE cells": {"test_system": "non-CF HBE cells", "assay": "Short circuit current (Ussing chamber), electrogenic sodium transport in non-CF HBE cells derived from COPD patients", "format": "cell-based, human", "details": "Homo sapiens; 1 μM, non-CF HBE cells", "description": "Studies were carried out using human bronchial epithelial (HBE) cells derived from five cystic fibrosis (CF) patients and five nonCF patients. The protocol is described in Devor, D. C. et al., “Pharmacological modulation of ion transport across wild-type and DeltaF508 CFTR-expressing human bronchial epithelia,” Am. J. Physiol. 279: C461-C479, 2000.\nCells were isolated and grown on filters for short circuit current (Isc) studies. Cells were mounted in modified Ussing chambers and the Isc monitored. The change in Isc in response to amiloride (10 μM) was taken as a measure of net electrogenic sodium transport after equilibration for 20 minutes. Forskolin (2 μM), UTP (100 μM), and genistein (30 μM) were used to stimulate anion secretion. Results from 6 to 12 similar experiments were obtained.\n7-Phenyl-2,4,6-heptatrienoylhydroxamic acid ([…]) was added to the culture medium and the cells were incubated for 24, 48, and 72 hours. Cells were fed every 24 hours with fresh media containing the compound. Control cells received an equivalent amount of vehicle (DMSO). Short circuit current measurements were also made on T84 cells, a human colonic epithethial cell line that secretes chloride by a CFTR mediated mechanism, and on M1 cells, a mouse kidney cell line that absorbs sodium by an ENaC mediated mechanism.\nTable 3 sumarizes the results of treating non-CF cells derived from COPD patients with 30 μM 7-phenyl-2,4,6-heptatrienoylhydroxamic acid for 72 hours. Electrogenic sodium transport was estimated from the amiloride (5 μM) sensitive short circuit current. Anion secretion was estimated from the forskolin (2 μM) stimulated short circuit current after the addition of amiloride. The treatment of cells with 30 μM 7-phenyl-2,4,6-heptatrienoylhydroxamic acid for 72 hours caused an inhibition in the amiloride sensitive sodium transport of nearly 80%. This effect was concentration and dose dependent with a half-maximal inhibition concentration of 13 μM±3 μM and a half-maximal inhibition at 24 hours."}, "CF HBE cells": {"test_system": "CF HBE cells", "assay": "Short circuit current (Ussing chamber), electrogenic sodium transport in CF HBE cells", "format": "cell-based, human", "details": "HBE cells treated for 72 hours"}}}
{"compound": "CC(/C=C/C(=O)NO)=C\\[C@@H](C)C(=O)c1ccc(N(C)C)cc1", "note": "[Trichostatin, reference compound]", "values": [{"measurement": "Ki", "setting": "histone deacetylase", "result": "low"}, {"measurement": "inhibition at 1 µM", "setting": "non-CF HBE cells", "result": 70, "unit": "%"}, {"measurement": "effect on sodium transport", "setting": "CF HBE cells; 3 nM, 30 nM, and 100 nM", "result": "no effect"}, {"measurement": "inhibition at 1 µM", "setting": "CF HBE cells; Homo sapiens, 1 μM", "result": 84, "unit": "%"}]}
